US9238666B2, “Phosphoramidic acid prodrugs of 5-[5-phenyl-4-(pyridin-2-ylmethylamino)quinazolin-2-yl] pyridine-3-sulfonamide” (BRISTOL-MYERS SQUIBB COMPANY, priority 2012, dated 2016)
In brackets after ≈: the same amount, converted by molar mass. Like-named read-outs stand apart in the source and are kept apart here.

Assays:
[1] = molecular target: Kv1.5 channel of voltage-gated K+ channels (Homo sapiens, UniProt P22460); assay: Kv1.5 channel inhibition; format: cell-based
Text: Assays to determine the degree of activity of a compound as an IKur inhibitor are well known in the art and are described in references such as J. Gen. Physiol., 101(4):513-543 (April 1993), and Br. J. Pharmacol., 115(2):267-274 (May 1995).
By displaying activity as inhibitors of the Kv1.5 channel of voltage-gated K+ channels, compounds of the present disclosure are expected to be useful in the treatment of human diseases associated with the Kv1.5 channel.

[2] = Solubility at different pH conditions (equilibrium, 24 h, HPLC); format: physicochemical
Procedure: Protocol for Solubility Studies of the Compounds of Instant Disclosure The solubility of the compounds of the present invention have been evaluated at various pH levels. The solubility was tested using the procedure described below. Excess amount of powder compound was equilibrated with 1 mL of buffer in a 2 mL glass vial and the dispersion of the compound in buffer ensured by vortexing, followed by sonication. The vials were shaken at 300 rpm at room temperature for 24 h. After 24 h incubation, the slurry was filtered and the filtrate analyzed by HPLC for the quantification of the solubilized fraction of compound using a four point calibration curve. Note: The incubation time was decided based on the aqueous stability data. If the compound was stable in the buffer up to 24 hrs, then the solubility was measured after 24 hrs, otherwise kinetic solubility data is reported. The solubility data at different pH conditions at 24 h (mg/mL) is provided in below Table 1.

[3] = buffer, pH 1, aqueous buffer, thermodynamic from solid, pH 1, room temperature, read-out: Solubility at 24 h
[4] = buffer, pH 2, aqueous buffer, thermodynamic from solid, pH 2, room temperature, read-out: Solubility at 24 h
[5] = buffer, pH 3, aqueous buffer, thermodynamic from solid, pH 3, room temperature, read-out: Solubility at 24 h
[6] = buffer, pH 5, aqueous buffer, thermodynamic from solid, pH 5, room temperature, read-out: Solubility at 24 h
[7] = buffer, pH 6.5, aqueous buffer, thermodynamic from solid, pH 6.5, room temperature, read-out: Solubility at 24 h
[8] = buffer, pH 7.4, aqueous buffer, thermodynamic from solid, pH 7.4, room temperature, read-out: Solubility at 24 h

Chain of Kv1.5 channel of voltage-gated K+ channels (P22460 whole entry): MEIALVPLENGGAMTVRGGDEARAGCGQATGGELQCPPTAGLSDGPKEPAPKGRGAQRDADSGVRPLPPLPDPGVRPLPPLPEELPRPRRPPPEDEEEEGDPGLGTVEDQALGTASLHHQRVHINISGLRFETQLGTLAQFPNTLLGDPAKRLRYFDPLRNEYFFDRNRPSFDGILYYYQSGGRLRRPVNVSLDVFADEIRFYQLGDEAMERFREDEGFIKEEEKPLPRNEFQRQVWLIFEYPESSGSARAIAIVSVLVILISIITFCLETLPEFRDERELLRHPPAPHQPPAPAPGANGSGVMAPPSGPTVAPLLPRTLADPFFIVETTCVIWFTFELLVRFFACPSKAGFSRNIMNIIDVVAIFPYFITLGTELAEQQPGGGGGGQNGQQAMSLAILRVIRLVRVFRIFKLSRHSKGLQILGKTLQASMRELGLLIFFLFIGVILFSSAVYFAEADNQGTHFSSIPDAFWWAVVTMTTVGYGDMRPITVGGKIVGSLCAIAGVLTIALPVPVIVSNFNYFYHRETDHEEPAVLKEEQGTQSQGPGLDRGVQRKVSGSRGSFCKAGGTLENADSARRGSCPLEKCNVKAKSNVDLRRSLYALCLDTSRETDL

Structure (SMILES)	IC50 [1] [nM]	Solubility at 24 h [2, 3] [µg/mL]	Solubility at 24 h [2, 4] [µg/mL]	Solubility at 24 h [2, 5] [µg/mL]	Solubility at 24 h [2, 6] [µg/mL]	Solubility at 24 h [2, 7] [µg/mL]	Solubility at 24 h [2, 8] [µg/mL]	Solubility at 24 h ([2]; pH 1, room temperature) [µg/mL]	Solubility at 24 h ([2]; pH 2, room temperature) [µg/mL]	Solubility at 24 h ([2]; pH 3, room temperature) [µg/mL]	Solubility at 24 h ([2]; pH 5, room temperature) [µg/mL]	Solubility at 24 h ([2]; pH 6.5, room temperature) [µg/mL]	Solubility at 24 h ([2]; pH 7.4, room temperature) [µg/mL]
NS(=O)(=O)c1cncc(-c2nc(NCc3ccccn3)c3c(-c4ccccc4)cccc3n2)c1 [Compound 1, 5-(5-phenyl-4-((pyridin-2-ylmethyl)amino)quinazolin-2-yl)pyridine-3-sulfonamide, reference compound]	46	6400 (≈ 13700 µM)	410 (≈ 875 µM)	< 1	< 1	< 1	< 1						
O=P(O)(O)NS(=O)(=O)c1cncc(-c2nc(NCc3ccccn3)c3c(-c4ccccc4)cccc3n2)c1 [Compound 2, 5-(5-Phenyl-4-(pyridin-2-ylmethylamino)quinazolin-2-yl)pyridin-3-ylsulfonylphosphoramidic acid]								250 (≈ 456 µM)	30 (≈ 54.7 µM)	10 (≈ 18.2 µM)	2 (≈ 3.65 µM)	110 (≈ 201 µM)	560 (≈ 1020 µM)
O=P(O)(O)NS(=O)(=O)c1cncc(-c2nc(NCc3ccccn3)c3c(-c4ccccc4)cccc3n2)c1 [Compound 3, Trisodium (5-(5-phenyl-4-((pyridin-2-ylmethyl)amino)quinazolin-2-yl)pyridin-3-yl)sulfonylphosphoramidate]								750	110	20	150	4620	7300
O=P(O)(O)NS(=O)(=O)c1cncc(-c2nc(NCc3ccccn3)c3c(-c4ccccc4)cccc3n2)c1 [Compound 5, Tris-(5-(5-phenyl-4-((pyridin-2-ylmethyl)amino)quinazolin-2-yl)pyridin-3-yl)sulfonylphosphoramidate]								1620 (≈ 2950 µM)	80 (≈ 146 µM)	30 (≈ 54.7 µM)	22 (≈ 40.1 µM)	2023 (≈ 3690 µM)	2514 (≈ 4580 µM)
O=P(O)(O)NS(=O)(=O)c1cncc(-c2nc(NCc3ccccn3)c3c(-c4ccccc4)cccc3n2)c1 [Compound 6, Tripotassium (5-(5-phenyl-4-((pyridin-2-ylmethyl)amino)quinazolin-2-yl)pyridin-3-yl)sulfonylphosphoramidate]								290	90	70	250	300	>1070
O=P(O)(O)NS(=O)(=O)c1cncc(-c2nc(NCc3ccccn3)c3c(-c4ccccc4)cccc3n2)c1 [Compound 7, Calcium (5-(5-phenyl-4-((pyridin-2-ylmethyl)amino)quinazolin-2-yl)pyridin-3-yl)sulfonylphosphoramidate]								990	120	20	70	1150	2410
O=P(O)(O)NS(=O)(=O)c1cncc(-c2nc(NCc3ccccn3)c3c(-c4ccccc4)cccc3n2)c1 [Compound 8, Magnesium (5-(5-phenyl-4-((pyridin-2-ylmethyl)amino)quinazolin-2-yl)pyridin-3-yl)sulfonylphosphoramidate]								600 (≈ 1090 µM)	20 (≈ 36.5 µM)	20 (≈ 36.5 µM)	30 (≈ 54.7 µM)	160 (≈ 292 µM)	190 (≈ 346 µM)
O=P(O)(O)N(P(=O)(O)O)S(=O)(=O)c1cncc(-c2nc(NCc3ccccn3)c3c(-c4ccccc4)cccc3n2)c1 [Compound 10]		> 1740	> 4050	> 2110	> 5120	> 4580	> 1990						
